{"source": "paper PMC7565988", "about": "“Insight into the Anticancer Activity of Copper(II) 5-Methylenetrimethylammonium-Thiosemicarbazonates and Their Interaction with Organic Cation Transporters” (Biomolecules, 2020)", "key": {"[1]": {"parameters": "method as in doi:10.1002/ejic.201200360", "settings": "pure water; cited from earlier work"}, "[2]": {"parameters": "method as in doi:10.1002/ejic.201200360", "settings": "pH 7.4; cited from earlier work"}, "[3]": {"target": "T1, OCT1 (Homo sapiens, UniProt O15245)", "T1 construct": "expressed in transfected cells", "T1 sequence (O15245 1-554)": "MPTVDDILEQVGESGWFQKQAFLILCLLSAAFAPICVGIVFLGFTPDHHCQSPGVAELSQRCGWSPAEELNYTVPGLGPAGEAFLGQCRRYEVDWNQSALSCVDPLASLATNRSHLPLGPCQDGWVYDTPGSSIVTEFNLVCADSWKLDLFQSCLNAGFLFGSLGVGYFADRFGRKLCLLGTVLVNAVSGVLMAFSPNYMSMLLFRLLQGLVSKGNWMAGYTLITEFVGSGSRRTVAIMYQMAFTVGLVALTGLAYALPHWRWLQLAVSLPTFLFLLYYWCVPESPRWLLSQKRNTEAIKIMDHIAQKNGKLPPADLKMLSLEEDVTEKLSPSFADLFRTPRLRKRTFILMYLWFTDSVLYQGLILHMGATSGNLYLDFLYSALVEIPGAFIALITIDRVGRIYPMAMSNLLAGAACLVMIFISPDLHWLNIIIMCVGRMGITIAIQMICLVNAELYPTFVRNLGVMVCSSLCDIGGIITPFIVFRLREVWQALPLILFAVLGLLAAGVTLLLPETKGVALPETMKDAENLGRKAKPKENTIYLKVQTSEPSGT", "parameters": "method as in PMID 14576340", "settings": "reference inhibitor; cited from earlier work"}, "[4]": {"target": "T2, OCT3 (Homo sapiens, UniProt O75751)", "T2 construct": "expressed in transfected cells", "T2 sequence (O75751 1-556)": "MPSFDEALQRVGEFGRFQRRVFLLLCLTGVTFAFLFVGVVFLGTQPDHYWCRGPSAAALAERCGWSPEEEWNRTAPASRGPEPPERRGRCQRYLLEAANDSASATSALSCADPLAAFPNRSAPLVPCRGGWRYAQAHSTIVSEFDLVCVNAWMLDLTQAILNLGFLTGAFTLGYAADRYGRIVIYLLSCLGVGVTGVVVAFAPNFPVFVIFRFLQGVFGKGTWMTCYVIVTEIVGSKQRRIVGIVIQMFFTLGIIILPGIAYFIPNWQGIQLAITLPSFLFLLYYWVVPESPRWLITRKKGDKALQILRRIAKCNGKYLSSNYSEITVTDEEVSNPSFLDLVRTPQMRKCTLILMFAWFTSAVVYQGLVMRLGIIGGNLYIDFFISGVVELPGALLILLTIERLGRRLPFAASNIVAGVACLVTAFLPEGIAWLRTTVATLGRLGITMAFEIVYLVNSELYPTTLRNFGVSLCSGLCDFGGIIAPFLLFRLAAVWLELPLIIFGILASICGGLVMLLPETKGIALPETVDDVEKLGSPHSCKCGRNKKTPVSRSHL", "parameters": "method as in PMID 14576340", "settings": "reference inhibitor; cited from earlier work"}, "[5]": {"target": "T3, OCT2 (Homo sapiens, UniProt O15244)", "T3 construct": "expressed in transfected cells", "T3 sequence (O15244 1-555)": "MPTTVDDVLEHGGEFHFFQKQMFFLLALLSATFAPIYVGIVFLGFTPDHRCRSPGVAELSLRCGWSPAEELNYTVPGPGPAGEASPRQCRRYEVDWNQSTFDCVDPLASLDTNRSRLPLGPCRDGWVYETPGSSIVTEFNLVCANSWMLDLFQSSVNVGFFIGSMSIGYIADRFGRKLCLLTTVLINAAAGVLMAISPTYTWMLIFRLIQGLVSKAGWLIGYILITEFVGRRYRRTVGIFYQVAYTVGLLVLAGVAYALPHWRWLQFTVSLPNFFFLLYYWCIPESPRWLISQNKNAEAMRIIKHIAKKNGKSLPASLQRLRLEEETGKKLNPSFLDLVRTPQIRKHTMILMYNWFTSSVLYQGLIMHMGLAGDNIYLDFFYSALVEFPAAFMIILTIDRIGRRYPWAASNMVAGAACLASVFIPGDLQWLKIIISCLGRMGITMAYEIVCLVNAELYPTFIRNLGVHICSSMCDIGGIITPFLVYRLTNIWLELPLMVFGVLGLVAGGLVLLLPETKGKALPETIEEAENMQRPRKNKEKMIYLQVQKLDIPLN", "parameters": "method as in PMID 14576340", "settings": "reference inhibitor; cited from earlier work"}, "[6]": {"test_system": "SH-SY5Y neuroblastoma cells", "assay": "MTT cytotoxicity (24 h) / antiproliferation (72 h) assay", "assay_type": "cell-based, human", "settings": "MTT", "protocol": "SH-SY5Y (ATCC® CRL-2266™) neuroblastoma cell line was purchased from LGC Promochem, Teddington, UK. The cell line was cultured in Eagle’s Minimal Essential Medium (EMEM, containing 4.5 g/L glucose) supplemented with a non-essential amino acid mixture, a selection of vitamins and 10% heat-inactivated foetal bovine serum. The cell line was incubated at 37 °C, in a 5% CO2, 95% air atmosphere.\n(§1) In the study non-cancerous human embryonic lung fibroblast MRC-5, human colonic adenocarcinoma cell line (doxorubicin-sensitive Colo 205, multidrug resistant Colo 320) and neuroblastoma cell line SH-SY5Y were used to determine the effect of compounds on cell growth. The effects of increasing concentrations of compounds on cell growth were tested in 96-well flat-bottomed microtiter plates. The compounds were diluted in a volume of 100 μL of medium.\nThe adherent human embryonal lung fibroblast and SH-SY5Y neuroblastoma cells were cultured in 96-well flat-bottomed microtiter plates, using EMEM supplemented with 10% heat-inactivated foetal bovine serum. The density of the cells was adjusted to 2 × 10^4 cells in 100 μL per well, the cells were seeded for 24 h at 37 °C, 5% CO2, then the medium was removed from the plates containing the cells, and the dilutions of compounds previously made in a separate plate were added to the cells in 200 μL.\n(§2) The culture plates were incubated at 37 °C for 24 h; at the end of the incubation period, 20 μL of MTT (thiazolyl blue tetrazolium bromide, Sigma) solution (from a stock solution of 5 mg/mL) were added to each well. After incubation at 37 °C for 4 h, 100 μL of sodium dodecyl sulfate (SDS) (Sigma) solution (10% in 0.01 M HCI) were added to each well and the plates were further incubated at 37 °C overnight. Cell growth was determined by measuring the optical density (OD) at 540/630 nm with Multiscan EX ELISA reader (Thermo Labsystems, Cheshire, WA, USA). […] Curves were fitted by GraphPad Prism software using the sigmoidal dose-response model (comparing variable and fixed slopes).\n(§3) The method is similar to the one described in the assay for cytotoxic effect. […] The culture plates were incubated at 37 °C for 72 h and after the incubation time, the plates were stained with MTT according to the previous experimental protocol described for the cytotoxicity assay."}, "[7]": {"test_system": "Colo 205 doxorubicin-sensitive colonic adenocarcinoma cells", "assay": "MTT cytotoxicity (24 h) / antiproliferation (72 h) assay", "assay_type": "cell-based, human", "settings": "read-out: Colo205 IC50", "protocol": "Human doxorubicin-sensitive Colo 205 (ATCC-CCL-222) and multidrug resistant Colo 320 (overexpressing ABCB1 (MDR1)-LRP (ATCC-CCL-220.1)) colonic adenocarcinoma cell lines were purchased from LGC Promochem, Teddington, UK. The cells were cultured in RPMI 1640 medium supplemented with 10% heat-inactivated fetal bovine serum, 2 mM L-glutamine, 1 mM Na-pyruvate and 100 mM Hepes. The cell lines were incubated at 37 °C, in a 5% CO2, 95% air atmosphere. The semi-adherent human colon cancer cells were detached with Trypsin-Versene (EDTA) solution for 5 min at 37 °C.\nas §1\nIn case of the colonic adenocarcinoma cells, the two-fold serial dilutions of compounds were prepared in 100 μL of RPMI 1640, horizontally. The semi-adherent colonic adenocarcinoma cells were treated with Trypsin–Versene (EDTA) solution. The cells were adjusted to a density of 2 × 10^4 cells in 100 μL of RPMI 1640 medium, and were added to each well, with the exception of the medium control wells. The final volume of the wells containing compounds and cells was 200 μL.\nas §2, §3"}}, "note": "Where two headings read alike, the source gives them in different places.", "data": [{"smiles": "NC(=S)N/N=C/c1ccccc1O", "note": "[STSC, salicylaldehyde thiosemicarbazone]", "values": [{"measurement": "pKa of the phenolic OH moiety", "setting": "[1]", "result": 8.88}, {"measurement": "logD7.4", "setting": "[2]", "result": "+1.74"}]}, {"smiles": "CCN1/C(=C/c2ccc3ccccc3[n+]2CC)C=Cc2ccccc21", "note": "[D-22, decynium-22]", "values": [{"measurement": "IC50", "setting": "[3]", "result": "0.98 ± 0.31", "unit": "µM"}, {"measurement": "IC50", "setting": "[4]", "result": "0.09 ± 0.01", "unit": "µM"}, {"measurement": "IC50", "setting": "[5]", "result": "1.13 ± 0.19", "unit": "µM"}]}, {"smiles": "N.N.[Cl][Pt][Cl]", "note": "[Cisplatin, reference compound]", "values": [{"measurement": "IC50", "setting": "[6]; 24 h exposure", "result": "26 ± 2.38", "unit": "µM"}, {"measurement": "IC50", "setting": "[6]; 72 h exposure", "result": "0.65 ± 0.08", "unit": "µM"}, {"measurement": "IC50", "setting": "[7]; 24 h exposure", "result": "68.8 ± 5.08", "unit": "µM"}, {"measurement": "IC50", "setting": "[7]; 72 h exposure", "result": "8.14 ± 1.59", "unit": "µM"}]}]}
